According to article PMC6542800 (Nature Communications, 2019):

Columns and labels:
[1] = biological target: T1, NOCT (122-431), catalytic domain of human NOCT (Homo sapiens, UniProt Q9UK39); test: LC-MS/MS product detection; assay type: biochemical; conditions: 10 μM enzyme, 1 h at r.t.
T1 construct: catalytic domain, residues 122-431; E. coli BL21 (DE3)-CodonPlus RIPL, pGEX-6P, GST tag removed with Prescission protease
T1 sequence (Q9UK39 122-431): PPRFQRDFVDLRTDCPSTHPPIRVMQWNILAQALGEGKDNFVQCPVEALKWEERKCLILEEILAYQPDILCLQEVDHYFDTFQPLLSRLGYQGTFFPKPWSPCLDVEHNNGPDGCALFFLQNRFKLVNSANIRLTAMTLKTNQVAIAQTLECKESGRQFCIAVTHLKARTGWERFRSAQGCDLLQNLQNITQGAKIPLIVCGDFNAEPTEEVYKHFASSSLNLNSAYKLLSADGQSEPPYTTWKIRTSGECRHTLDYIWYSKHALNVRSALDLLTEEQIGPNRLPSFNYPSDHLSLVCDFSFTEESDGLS

[2] = biological target: T2, full-length (FL) human NOCT (Homo sapiens, UniProt Q9UK39); test: ion-exchange chromatography, UV […] nm; assay type: biochemical; conditions: 22 °C, 20 mM Tris-HCl pH 8.0, 70 mM NaCl, 2 mM MgCl2; 1 mM substrate, 0.5 μM enzyme
T2 construct: E. coli, pGEX-6P, GST tag removed with Prescission protease
T2 sequence (Q9UK39 1-431): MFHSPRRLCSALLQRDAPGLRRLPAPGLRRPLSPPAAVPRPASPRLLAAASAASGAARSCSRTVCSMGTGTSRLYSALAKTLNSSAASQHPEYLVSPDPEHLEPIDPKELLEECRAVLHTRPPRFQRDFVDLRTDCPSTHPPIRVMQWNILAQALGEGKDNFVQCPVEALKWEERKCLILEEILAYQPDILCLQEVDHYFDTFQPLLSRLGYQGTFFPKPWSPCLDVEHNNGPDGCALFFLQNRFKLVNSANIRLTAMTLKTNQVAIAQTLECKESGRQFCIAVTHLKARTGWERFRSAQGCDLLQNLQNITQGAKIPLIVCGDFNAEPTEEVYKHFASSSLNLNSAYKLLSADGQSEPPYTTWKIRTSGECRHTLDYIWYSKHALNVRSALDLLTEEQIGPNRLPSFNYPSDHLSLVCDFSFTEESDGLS

[3] = biological target: T3, Curled (NOCT ortholog), full-length, Curled 1-419 (Drosophila melanogaster, UniProt A8JQX3); test: ion-exchange chromatography, UV […] nm; assay type: biochemical; conditions: 22 °C, 20 mM Tris-HCl pH 8.0, 70 mM NaCl, 2 mM MgCl2
T3 construct: gene cu; full length 1-419 of splicing form H; E. coli, pGEX-6P, GST tag removed with Prescission protease
T3 sequence (A8JQX3 224-642): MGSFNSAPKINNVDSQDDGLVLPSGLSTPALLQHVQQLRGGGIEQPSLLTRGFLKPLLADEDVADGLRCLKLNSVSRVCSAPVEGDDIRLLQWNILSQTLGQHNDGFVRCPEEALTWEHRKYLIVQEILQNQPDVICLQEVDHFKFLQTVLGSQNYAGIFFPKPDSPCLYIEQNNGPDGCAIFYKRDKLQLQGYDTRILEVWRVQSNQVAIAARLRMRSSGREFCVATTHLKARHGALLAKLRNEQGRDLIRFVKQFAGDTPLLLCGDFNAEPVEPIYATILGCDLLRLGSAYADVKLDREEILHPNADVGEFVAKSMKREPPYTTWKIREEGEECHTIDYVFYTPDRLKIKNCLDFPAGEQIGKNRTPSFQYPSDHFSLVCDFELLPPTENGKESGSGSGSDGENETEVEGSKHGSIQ

[4] = substrate: NC(=O)C1=CN([C@@H]2O[C@H](COP(=O)(O)OP(=O)(O)OC[C@H]3O[C@@H](n4cnc5c(N)ncnc54)[C@H](OP(=O)(O)O)[C@@H]3O)[C@@H](O)[C@H]2O)C=CC1; test: purified protein; conditions: 22 °C, 20 mM Tris-HCl pH 8.0, 70 mM NaCl

Molecule: NC(=O)c1ccc[n+]([C@@H]2O[C@H](COP(=O)(O)OP(=O)(O)OC[C@H]3O[C@@H](n4cnc5c(N)ncnc54)[C@H](OP(=O)(O)O)[C@@H]3O)[C@@H](O)[C@H]2O)c1 [NADP^+]
- LC-MS/MS product detection [1]: converted NADPH into NADH and NADP^+ into NAD^+ (Fig. 1c)
- ion-exchange chromatography, UV 260 nm [2]: conversion of both NADP^+ and NADPH into NAD^+ and NADH, respectively by full-length (FL) NOCT
- ion-exchange chromatography, UV 260 nm [3]: Curled cleaved both NADP^+ and NADPH, exhibiting a preference for NADPH

Molecule: NC(=O)C1=CN([C@@H]2O[C@H](COP(=O)(O)OP(=O)(O)OC[C@H]3O[C@@H](n4cnc5c(N)ncnc54)[C@H](OP(=O)(O)O)[C@@H]3O)[C@@H](O)[C@H]2O)C=CC1 [NADPH]
- ion-exchange chromatography, UV 260 nm ([3]; 1 mM substrate, 500 nM enzyme): In contrast, Curled readily cleaved NADPH (Fig. 5c; Supplementary Fig. 5b)

B1: full-length (FL) human NOCT (Homo sapiens) (protein)
chain: T2 sequence (Q9UK39 1-431)
- kcat ([4]; 2 mM MgCl2, printed range may span catalytic domain and full-length protein): 34 s⁻¹

B2: NOCT (122-431), catalytic domain of human NOCT (Homo sapiens) (protein)
chain: T1 sequence (Q9UK39 122-431)
- kcat ([4]; 2 mM MgCl2, 4.8 μM enzyme, printed range may span catalytic domain and full-length protein): 3.6 s⁻¹
